The values that follow are results of earlier work, collected in patent US20170003257A1, “WETNESS INDICATOR WITH TWO COLORANTS AND TWO STABILIZERS” (The Procter & Gamble Company, priority 2015, published 2017).

The conditions of data set [1]: Table 2 stabilizers; for pKa (1): first pKa; for pKa (2): second pKa; for pKa (3): third pKa.

Molecules are shown by their SMILES. Read-outs that look alike come from different tables or passages of the source.

With `CCCCCCCCCCN` [Decylamine], the “pKa (1)” value in data set [1] is given as 10.6.
Regarding `CN(C)c1ccc(C(=C2C=CC(=[N+](C)C)C=C2)c2ccccc2)cc1` [Malachite Green], under “Alkaline pH range”, the pKa is reported as 12.8.
With `CC[N+](CC)=c1ccc2nc3c(cc(N)c4ccccc43)oc-2c1` [Nile Blue], the pKa (Table 1 colorants) was 9.7.
`O=C(O)CCCCCC(=O)O` [Heptanedioic acid]: in data set [1], the “pKa (1)” value is recorded as 4.7.
Turning to `O=C(O)c1ccncc1` [4-Pyridinecarboxylic acid], the “pKa (1)” value in data set [1] is on record as 5.0.
As for `Oc1ccc(O)cc1` [Hydroquinone], in data set [1], the “pKa (1)” value is on record as 10.3.
As for `Cc1ccc(C(=O)O)cc1` [p-Toluic acid], the “pKa (1)” value in data set [1] was 4.4.
Turning to `Oc1cccc(O)c1` [Resorcinol], in data set [1], the “pKa (1)” value was 9.3 and the “pKa (2)” value was 11.1.
For the compound `O=C(O)c1ccccn1` [Picolinic acid], in data set [1], the “pKa (1)” value is given as 1.1 and the “pKa (2)” value is given as 5.2.
Consider `CC(=NO)C(C)=NO` [Dimethylglyoxime], for which, in data set [1], the “pKa (1)” value was 10.7 and the “pKa (2)” value is given as 12.0.
As for `CC(C)CCC(=O)O` [4-Methylpentanoic acid], the “pKa (1)” value in data set [1] was 4.8.
`NCCN` [Ethylenediamine]: the “pKa (1)” value in data set [1] is reported as 6.8.
On to `OB(O)O` [Boric acid], for which, in data set [1], the “pKa (1)” value is 9.3, the “pKa (2)” value is given as 12.7 and the “pKa (3)” value is on record as 13.8.
Consider `Cc1ccccc1C(=O)O` [o-Toluic acid], for which the “pKa (1)” value in data set [1] is 3.9.
Regarding `Oc1ccccc1O` [Pyrocatechol], in data set [1], the “pKa (1)” value is 9.4 and the “pKa (2)” value is given as 12.8.
Turning to `O=C(O)CN(CCN(CC(=O)O)CC(=O)O)CC(=O)O` [Ethylenediaminetetraacetic acid (EDTA), Ethylenediaminetetraacetic acid], the “pKa (5)” value in data set [1] (fifth pKa) is 6.7. In data set [1], the “pKa (1)” value is listed as −0.21, the “pKa (2)” value is reported as 1.5 and the “pKa (3)” value is on record as 2.2. Moreover, in data set [1] (fourth pKa), the “pKa (4)” value is given as 3.1.
Regarding `CC(=O)CC(=O)O` [Acetoacetic acid], the “pKa (1)” value in data set [1] was 3.6.
As to `N[C@@H](CO)C(=O)O` [Serine], the “pKa (2)” value in data set [1] was 9.0.
Regarding `O=C(O)C(O)CO` (stereo not shown) [Glyceric acid], the “pKa (1)” value in data set [1] was 3.5.
On to `CCCCCCN` [Hexylamine], for which the “pKa (1)” value in data set [1] is reported as 10.6.
In the case of `O=C1O[C@H]([C@@H](O)CO)C(O)=C1O` [Ascorbic acid], the “pKa (2)” value in data set [1] is 11.8.
Regarding `CCCCCCCN` [Heptylamine], the “pKa (1)” value in data set [1] is given as 10.7.
`O=c1ccc2[n+]([O-])c3ccc(O)cc3oc-2c1` [Resazurin]: the pKa (Table 1 colorants) is recorded as 5.1.
As to `NCCc1ccc(O)cc1` [Tyramine], in data set [1], the “pKa (1)” value is listed as 9.8 and the “pKa (2)” value is 10.5.
Take `NC(C(=O)O)c1ccccc1` (stereo not shown) [Phenylglycine]: in data set [1], the “pKa (1)” value is listed as 1.8 and the “pKa (2)” value is reported as 4.4.
Regarding `O=C(O)c1cncc(C(=O)O)c1` [Dinicotinic acid], the “pKa (1)” value in data set [1] is recorded as 2.8.
Regarding `O=CC(=O)O` [Glyoxylic acid], the “pKa (1)” value in data set [1] is reported as 3.2.
Turning to `Cc1cc(O)c(C(C)C)cc1C1(c2cc(C(C)C)c(O)cc2C)OC(=O)c2ccccc21` [Thymolphthalein], the pKa (Table 1 colorants) is 9.8.
On to `C[N+](C)(C)CC(=O)O` [Betaine], for which, in data set [1], the “pKa (1)” value was 1.83.
As for `O=S(O)O` [Sulfurous acid], the “pKa (2)” value in data set [1] is 7.2.
On to `NCCCCCCN` [Hexamethylenediamine], for which, in data set [1], the “pKa (1)” value is listed as 11.9 and the “pKa (2)” value was 10.8.
For the compound `Oc1ccccc1O` [Catechol], in data set [1], the “pKa (1)” value is 9.4 and the “pKa (2)” value is on record as 12.8.
As for `N=C(N)NCCC[C@H](N)C(=O)O` [Arginine], the “pKa (1)” value in data set [1] is recorded as 1.8.
For the compound `N[C@@H](Cc1ccccc1)C(=O)O` [Phenylalanine], the “pKa (2)” value in data set [1] is reported as 9.3.
As for `O=c1[nH]c(=O)c2[nH]c(=O)[nH]c2[nH]1` [Uric acid], the “pKa (1)” value in data set [1] is 3.9.
